Results as given in patent publication EP0504184B1, “ACTIVE AGENT AGAINST RETROVIRUS GROUP VIRUSES, COMPOSITIONS CONTAINING SAME AND THEIR USE” (PREVISAN S.A., priority 1989, dated 1991).

Legend:
virus VIH-1 = test: Infectivity of pretreated HIV-1 virus for the Supt-1 line (p24 antigen in cell lysates, optical density; phase-contrast microscopy); type: cell-based; conditions: virus incubated 30 minutes with chloroazodine 1/3000; 24 days after infection; p24 in Supt-1 lysates
Text: Ces essais comprennent comme matériel de départ : • de la N, N'-dichloroazodicarbonamidine (chloroazodine) à 95 % pure. La pureté a été examinée par chromatographie en couche mince et par un test de carbone-hydrogène (v. BRAZ G.I. et cons., J. Applied Chem. (USSR) 17,565-9 (1944)). • un surnageant de cultures de cellules (Molt-3) continuellement productrices de virus VIH-1. Le surnageant viral utilisé a une activité de transcriptase inverse de 1 x 10^6 cpm/ml. • des cellules d'une lignée T humaine continue de phénotype T4 (Supt-1) cultivée en milieu RPMI, additionné de 10 % de sérum de veau foetal et de 1 % de glutamine.
L' efficacité de la chloroazodine va être étudiée à deux niveaux : • a) action sur l'infectivité du virus VIH-1 pour la lignée Supt-1. • b) action sur l'intégration du génome viral dans l'ADN chromosomial des cellules Supt-1.
On fait incuber des préparations virales de VIH-1 à haut titre en présence de dilutions de chloroazodine de 1/1500 et de 1/3000 et pendant différents temps d'incubation. Pendant 30 minutes à 37°C, on traite préalablement les cellules Supt-1 par 10 µg/ml de polybrène, puis on les inocule avec les préparations de virus traités. On prévoit comme témoins, des cellules non inoculées, et des cellules inoculées par une préparation de virus non traités.
On détermine ensuite l'infectivité, à chaque passage cellulaire, de ces préparations en suivant la production virale (mesure de l'antigène p24 exprimé) dans les lysats cellulaires solubilisés des cellules Supt-1 examinées.
Les mesures du pouvoir infectieux du virus VIH-1 après incubation avec de la chloroazodine ressortent des tableaux 1 à 3 suivants, ainsi que des figures 1 à 3 qui correspondent aux tableaux 1 à 3. Sur ces figures, on trouve en ordonnée la densité optique (D.O.) et en abscisse le nombre de jours après l'infection. Le trait plein représente le témoin non traite, le trait interrompu la dilution de 1/1500 de chloroazodine, et le trait pointillé la dilution de 1/3000 de chloroazodine.

provirus VIH-1 = test: Integration of the viral genome into chromosomal DNA of Supt-1 cells (PCR of gag, LTR, env; hybridisation with P32 probes); type: cell-based; conditions: for provirus VIH-1 dans les cellules Supt-1: hybridisation with P32 probes for gag, LTR, env
Text: Intégration du génome viral dans l'ADN chromosomial des cellules Supt-1.
Par amplification génétique grâce à une polymérase thermostable, on met en évidence la présence des gènes "gag", "LTR" et "env" du provirus VIH-1. Cette technique est appelée P.C.R. (Polymerase Chain Reaction) (CHIN-YIH OU et cons., Sciences, 239, 295-297, 1988).
Cette technique est appliquée pour la détection du provirus VIH-1 dans le génome des cellules Supt-1 inoculées par du virus VIH-1 incubé avec de la chloroazodine, comme décrit dans l'exemple 4.

lymphocytes normaux = type: cell-based, humains
Text: (§1) Des lymphocytes humains provenant du sang périphérique de donneurs séro-négatifs (PBL) sont infectés par du VIH-1 provenant du surnageant de cellules Molt-3, c'est-à-dire de cellules continuellement productrices de ces virus.
(§2) Quatre populations cellulaires sont étudiées quant à leur mortalité : • 1 des lymphocytes normaux en culture (Témoin A). • 2 des lymphocytes normaux en présence de chloroazodine 1/3000. • 3 des lymphocytes infectés non traités (Témoin B). • 4 des lymphocytes infectés, en présence de chloroazodine 1/3000. Tableau 4

lymphocytes infectés = test: Mortality of HIV-1 infected human peripheral blood lymphocytes with chloroazodine; type: cell-based, humains; conditions: for Nombre de cellules mortes / Nombre de cellules vivantes: HIV-1 infected lymphocytes + chloroazodine 1/3000
Text: as §1
Au jour 8 de l'infection, celle-ci est contrôlée par l'expression de l'antigène p 24 (Test Elisa, voir Exemple 4).
as §2

[1] = test system: virus VIH-1 dans des cellules Molt-3 B; test: p24 antigen in culture supernatants of treated Molt-3 B cells continuously producing HIV (optical density); type: cell-based; conditions: for Mesure du pouvoir infectieux des virus VIH-1 dans des cellules Molt-3 B (densité optique): p24 in supernatant
Procedure: Des cellules Molt-3 B, continuellement productrices de virus VIH, ont été traitées par de la chloroazodine à des concentrations de 1/1500 et 1/3000 pendant des périodes de 1 minute, 10 minutes et 30 minutes.
Les antigènes p 24 exprimes dans les surnageants de culture ont été évalués après 24 h., 48 h., 72 h. et 96 h.
Pour mesurer cet effet en contournant la toxicité du produit pour les cellules infectées, on a choisi de prendre un nombre cellulaire extraordinairement élevé de manière à conserver un nombre très faible, mais suffisant, de cellules vivantes après 96 h. Tableau 5

## NC(N=NC(N)=NCl)=NCl [chloroazodine, N, N'-dichloroazodicarbonamidine]
Virus VIH-1
  Mesure d'infectivité du virus VIH-1 (D.O.492): 0,172 ± 0,031
Provirus VIH-1; PCR, ethidium bromide
  oligonucléotides amplifiés et visibles aux UV: apparaissent uniquement dans les tubes à essais qui correspondent à une inoculation par du virus VIH-1 non traité à la chloroazodine
Provirus VIH-1; virions treated at dilution 1/1500
  provirus VIH-1 dans les cellules Supt-1: absence totale de provirus VIH-1
Provirus VIH-1; virions treated at dilution 1/3000
  provirus VIH-1 dans les cellules Supt-1: absence totale de provirus VIH-1
Lymphocytes normaux
  différences entre les témoins A et B et les lymphocytes sains + chloroazodine: non significatives
Lymphocytes infectés; duration 1 min
  Nombre de cellules mortes: 31
  Nombre de cellules vivantes: 17
Lymphocytes infectés; duration 10 min
  Nombre de cellules mortes: 34
  Nombre de cellules vivantes: 14
Lymphocytes infectés; duration 30 min
  Nombre de cellules mortes: 39
  Nombre de cellules vivantes: 21
Lymphocytes infectés; duration 180 min
  Nombre de cellules mortes: 20
  Nombre de cellules vivantes: 8
Lymphocytes infectés; conclusion from comparison of infected and normal lymphocytes, chloroazodine 1/3000
  toxicité sélective pour des cellules infectées: toxicité sélective de la chloroazodine pour des cellules infectées
[1]; chloroazodine 1/1500, treatment 1 min, 24 h. after treatment
  Mesure du pouvoir infectieux des virus VIH-1 dans des cellules Molt-3 B (densité optique): 0,175
[1]; chloroazodine 1/1500, treatment 1 min, 48 h. after treatment
  Mesure du pouvoir infectieux des virus VIH-1 dans des cellules Molt-3 B (densité optique): 0,175
[1]; chloroazodine 1/1500, treatment 1 min, 72 h. after treatment
  Mesure du pouvoir infectieux des virus VIH-1 dans des cellules Molt-3 B (densité optique): 0,167
[1]; chloroazodine 1/1500, treatment 10 min, 24 h. after treatment
  Mesure du pouvoir infectieux des virus VIH-1 dans des cellules Molt-3 B (densité optique): 0,182
[1]; chloroazodine 1/1500, treatment 10 min, 48 h. after treatment
  Mesure du pouvoir infectieux des virus VIH-1 dans des cellules Molt-3 B (densité optique): 0,181
[1]; chloroazodine 1/1500, treatment 10 min, 72 h. after treatment
  Mesure du pouvoir infectieux des virus VIH-1 dans des cellules Molt-3 B (densité optique): 0,145
[1]; chloroazodine 1/1500, treatment 30 min, 24 h. after treatment
  Mesure du pouvoir infectieux des virus VIH-1 dans des cellules Molt-3 B (densité optique): 0,194
[1]; chloroazodine 1/1500, treatment 30 min, 48 h. after treatment
  Mesure du pouvoir infectieux des virus VIH-1 dans des cellules Molt-3 B (densité optique): 0,155
[1]; chloroazodine 1/1500, treatment 30 min, 72 h. after treatment
  Mesure du pouvoir infectieux des virus VIH-1 dans des cellules Molt-3 B (densité optique): 0,173
[1]; chloroazodine 1/3000, treatment 1 min, 24 h. after treatment
  Mesure du pouvoir infectieux des virus VIH-1 dans des cellules Molt-3 B (densité optique): 0,247
[1]; chloroazodine 1/3000, treatment 1 min, 48 h. after treatment
  Mesure du pouvoir infectieux des virus VIH-1 dans des cellules Molt-3 B (densité optique): 0,154
[1]; chloroazodine 1/3000, treatment 1 min, 72 h. after treatment
  Mesure du pouvoir infectieux des virus VIH-1 dans des cellules Molt-3 B (densité optique): 0,170
[1]; chloroazodine 1/3000, treatment 10 min, 24 h. after treatment
  Mesure du pouvoir infectieux des virus VIH-1 dans des cellules Molt-3 B (densité optique): 0,180
[1]; chloroazodine 1/3000, treatment 10 min, 48 h. after treatment
  Mesure du pouvoir infectieux des virus VIH-1 dans des cellules Molt-3 B (densité optique): 0,176
[1]; chloroazodine 1/3000, treatment 10 min, 72 h. after treatment
  Mesure du pouvoir infectieux des virus VIH-1 dans des cellules Molt-3 B (densité optique): 0,152
[1]; chloroazodine 1/3000, treatment 30 min, 24 h. after treatment
  Mesure du pouvoir infectieux des virus VIH-1 dans des cellules Molt-3 B (densité optique): 0,211
[1]; chloroazodine 1/3000, treatment 30 min, 48 h. after treatment
  Mesure du pouvoir infectieux des virus VIH-1 dans des cellules Molt-3 B (densité optique): 0,162
[1]; chloroazodine 1/3000, treatment 30 min, 72 h. after treatment
  Mesure du pouvoir infectieux des virus VIH-1 dans des cellules Molt-3 B (densité optique): 0,176
[1]; conclusion of example 7, Molt-3 B cells, chloroazodine 1/1500 and 1/3000
  production de VIH par des cellules infectées: capable d'empêcher la production de VIH par des cellules infectées
